# Measurements published in the supplement of paper PMC11451515.
# Test system: SEM cells
# Test: cell viability relative to DMSO control; higher = less cytotoxic
# Details: 48 h
# Summary of the method: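 Viability is a per-plate percentage relative to DMSO wells, with cell-free wells as background. CellTiter-Glo One luminescence was read after 48 h at 37°C on 1536-well plates (5 μl) of NOMO1 or SEM (500 cells/well) or P12-Ichikawa (1000 cells/well) leukemia cells. The cells had been adapted for at least four passages in each medium and pin-dosed with library compounds in DMSO from 47 μM to 0.79 nM in 11 threefold steps.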
# [1] = HPLM + 10% dialyzed FBS, 0.000781 µM
# [2] = HPLM + 10% dialyzed FBS, 0.00234 µM
# [3] = HPLM + 10% dialyzed FBS, 0.00702 µM
# [4] = HPLM + 10% dialyzed FBS, 0.0211 µM
# [5] = HPLM + 10% dialyzed FBS, 0.0632 µM
# [6] = HPLM + 10% dialyzed FBS, 0.19 µM
# [7] = HPLM + 10% dialyzed FBS, 0.569 µM
# [8] = HPLM + 10% dialyzed FBS, 1.71 µM
# [9] = HPLM + 10% dialyzed FBS, 5.12 µM
# [10] = HPLM + 10% dialyzed FBS, 15.4 µM
# [11] = HPLM + 10% dialyzed FBS, 46.1 µM
# [12] = RPMI 5 mM glucose + 10% FBS, 0.000781 µM
# [13] = RPMI 5 mM glucose + 10% FBS, 0.00234 µM
# [14] = RPMI 5 mM glucose + 10% FBS, 0.00702 µM
# [15] = RPMI 5 mM glucose + 10% FBS, 0.0211 µM
# [16] = RPMI 5 mM glucose + 10% FBS, 0.0632 µM
# [17] = RPMI 5 mM glucose + 10% FBS, 0.19 µM
# [18] = RPMI 5 mM glucose + 10% FBS, 0.569 µM
# [19] = RPMI 5 mM glucose + 10% FBS, 1.71 µM
# [20] = RPMI 5 mM glucose + 10% FBS, 5.12 µM
# [21] = RPMI 5 mM glucose + 10% FBS, 15.4 µM
# [22] = RPMI 5 mM glucose + 10% FBS, 46.1 µM
# [23] = RPMI 5 mM glucose + 10% dialyzed FBS, 0.000781 µM
# [24] = RPMI 5 mM glucose + 10% dialyzed FBS, 0.00234 µM
# [25] = RPMI 5 mM glucose + 10% dialyzed FBS, 0.00702 µM
# [26] = RPMI 5 mM glucose + 10% dialyzed FBS, 0.0211 µM
# [27] = RPMI 5 mM glucose + 10% dialyzed FBS, 0.0632 µM
# [28] = RPMI 5 mM glucose + 10% dialyzed FBS, 0.19 µM
# [29] = RPMI 5 mM glucose + 10% dialyzed FBS, 0.569 µM
# [30] = RPMI 5 mM glucose + 10% dialyzed FBS, 1.71 µM
# [31] = RPMI 5 mM glucose + 10% dialyzed FBS, 5.12 µM
# [32] = RPMI 5 mM glucose + 10% dialyzed FBS, 15.4 µM
# [33] = RPMI 5 mM glucose + 10% dialyzed FBS, 46.1 µM
compound,measurement,setting,value
COC1=CC2=NC=CC(=C2C=C1)OC3=CN=C(NC(=O)C/4=C(C)/N(CC(C)(C)O)N(C4=O)C5=CC=CC=C5)C=C3,cell viability,[1],82.3%
same,cell viability,[2],84.7%
same,cell viability,[3],63.1%
same,cell viability,[4],83.6%
same,cell viability,[5],89.4%
same,cell viability,[6],86.1%
same,cell viability,[7],79.1%
same,cell viability,[8],52.1%
same,cell viability,[9],32.7%
same,cell viability,[10],36.4%
same,cell viability,[11],31%
same,cell viability,[12],108%
same,cell viability,[13],96.2%
same,cell viability,[14],91.6%
same,cell viability,[15],108%
same,cell viability,[16],103%
same,cell viability,[17],99%
same,cell viability,[18],82%
same,cell viability,[19],60.9%
same,cell viability,[20],29.3%
same,cell viability,[21],36%
same,cell viability,[22],31%
same,cell viability,[23],74.1%
same,cell viability,[24],82.1%
same,cell viability,[25],76.7%
same,cell viability,[26],77.8%
same,cell viability,[27],79.4%
same,cell viability,[28],80%
same,cell viability,[29],60.5%
same,cell viability,[30],50.3%
same,cell viability,[31],32.8%
same,cell viability,[32],33.2%
same,cell viability,[33],27.4%
Cc1nc(NC(=O)N2CCC[C@H]2C(N)=O)sc1-c1ccnc(C(C)(C)C(F)(F)F)c1,cell viability,[1],91.6%
same,cell viability,[2],98.2%
same,cell viability,[3],84.2%
same,cell viability,[4],96.9%
same,cell viability,[5],93%
same,cell viability,[6],72.5%
same,cell viability,[7],74.4%
same,cell viability,[8],63.3%
same,cell viability,[9],59.1%
same,cell viability,[10],52.7%
same,cell viability,[11],100%
same,cell viability,[12],98.7%
same,cell viability,[13],111%
same,cell viability,[14],102%
same,cell viability,[15],121%
same,cell viability,[16],112%
same,cell viability,[17],91.1%
same,cell viability,[18],97.8%
same,cell viability,[19],86.6%
same,cell viability,[20],74.5%
same,cell viability,[21],68.2%
same,cell viability,[22],119%
same,cell viability,[23],96.3%
same,cell viability,[24],95.9%
same,cell viability,[25],84%
same,cell viability,[26],93%
same,cell viability,[27],85.7%
same,cell viability,[28],92.3%
same,cell viability,[29],86.1%
same,cell viability,[30],77.2%
same,cell viability,[31],62.2%
same,cell viability,[32],58%
same,cell viability,[33],89.2%
CN(C)CCOc1cc(-c2cn[nH]c2)ccc1NC(=O)C1COc2ccccc2O1 (stereo not drawn),cell viability,[1],87.1%
same,cell viability,[2],84.6%
same,cell viability,[3],101%
same,cell viability,[4],105%
same,cell viability,[5],106%
same,cell viability,[6],106%
same,cell viability,[7],98.5%
same,cell viability,[8],102%
same,cell viability,[9],80.1%
same,cell viability,[10],71.7%
same,cell viability,[11],56.2%
same,cell viability,[12],101%
same,cell viability,[13],95%
same,cell viability,[14],108%
same,cell viability,[15],94.9%
same,cell viability,[16],118%
same,cell viability,[17],90.7%
same,cell viability,[18],103%
same,cell viability,[19],96%
same,cell viability,[20],105%
same,cell viability,[21],69.3%
same,cell viability,[22],61.3%
same,cell viability,[23],107%
same,cell viability,[24],101%
same,cell viability,[25],110%
same,cell viability,[26],108%
same,cell viability,[27],94.6%
same,cell viability,[28],104%
same,cell viability,[29],93.1%
same,cell viability,[30],102%
same,cell viability,[31],98.3%
same,cell viability,[32],71.8%
same,cell viability,[33],68.9%
CN[S+](=O)([O-])Cc1ccc2[nH]cc(CCN(C)C)c2c1,cell viability,[1],95.3%
same,cell viability,[2],104%
same,cell viability,[3],102%
same,cell viability,[4],111%
same,cell viability,[5],112%
same,cell viability,[6],118%
same,cell viability,[7],113%
same,cell viability,[8],119%
same,cell viability,[9],118%
same,cell viability,[10],129%
same,cell viability,[11],118%
same,cell viability,[12],89.2%
same,cell viability,[13],114%
same,cell viability,[14],104%
same,cell viability,[15],114%
same,cell viability,[16],107%
same,cell viability,[17],119%
same,cell viability,[18],121%
same,cell viability,[19],115%
same,cell viability,[20],126%
same,cell viability,[21],128%
same,cell viability,[22],128%
same,cell viability,[23],93.4%
same,cell viability,[24],86%
same,cell viability,[25],87%
same,cell viability,[26],91.8%
same,cell viability,[27],94.1%
same,cell viability,[28],102%
same,cell viability,[29],95.7%
same,cell viability,[30],106%
same,cell viability,[31],94.8%
same,cell viability,[32],111%
same,cell viability,[33],92.9%
CN1[C@@H]2CC[C@H]1CC(OC(=O)c1c[nH]c3ccccc13)C2 (stereo partly drawn),cell viability,[1],111%
same,cell viability,[2],109%
same,cell viability,[3],118%
same,cell viability,[4],25.9%
same,cell viability,[5],130%
same,cell viability,[6],130%
same,cell viability,[7],126%
same,cell viability,[8],117%
same,cell viability,[9],114%
same,cell viability,[10],114%
same,cell viability,[11],124%
same,cell viability,[12],113%
same,cell viability,[13],115%
same,cell viability,[14],124%
same,cell viability,[15],17.8%
same,cell viability,[16],123%
same,cell viability,[17],116%
same,cell viability,[18],111%
same,cell viability,[19],119%
same,cell viability,[20],137%
same,cell viability,[21],98.6%
same,cell viability,[22],93.6%
OC(=O)C1=CC=C(NC2=NC3=C(C\N=C(/C4=CC(=CC=C34)Cl)C5=C(F)C=CC=C5F)C=N2)C=C1,cell viability,[1],88.5%
same,cell viability,[2],98.5%
same,cell viability,[3],87.5%
same,cell viability,[4],97.9%
same,cell viability,[5],101%
same,cell viability,[6],96%
same,cell viability,[7],114%
same,cell viability,[8],65.8%
same,cell viability,[9],59.7%
same,cell viability,[10],36.9%
same,cell viability,[11],40.3%
same,cell viability,[12],96%
same,cell viability,[13],93%
same,cell viability,[14],113%
same,cell viability,[15],99.9%
same,cell viability,[16],109%
same,cell viability,[17],91%
same,cell viability,[18],109%
same,cell viability,[19],60.2%
same,cell viability,[20],37.3%
same,cell viability,[21],28.4%
same,cell viability,[22],23.2%
same,cell viability,[23],88.6%
same,cell viability,[24],98.5%
same,cell viability,[25],86%
same,cell viability,[26],105%
same,cell viability,[27],90.8%
same,cell viability,[28],95.7%
same,cell viability,[29],107%
same,cell viability,[30],58.6%
same,cell viability,[31],39%
same,cell viability,[32],28.4%
same,cell viability,[33],32.2%
OC1=CC=C(C=C1)\C2=C\OC3=C(C=CC(=C3)O)C2=O,cell viability,[1],102%
same,cell viability,[2],96.6%
same,cell viability,[3],103%
same,cell viability,[4],109%
same,cell viability,[5],114%
same,cell viability,[6],102%
same,cell viability,[7],104%
same,cell viability,[8],102%
same,cell viability,[9],108%
same,cell viability,[10],101%
same,cell viability,[11],94.5%
same,cell viability,[12],100%
same,cell viability,[13],89.9%
same,cell viability,[14],109%
same,cell viability,[15],104%
same,cell viability,[16],107%
same,cell viability,[17],96.5%
same,cell viability,[18],99.4%
same,cell viability,[19],104%
same,cell viability,[20],112%
same,cell viability,[21],96.7%
same,cell viability,[22],104%
same,cell viability,[23],96.7%
same,cell viability,[24],97.1%
same,cell viability,[25],109%
same,cell viability,[26],118%
same,cell viability,[27],101%
same,cell viability,[28],101%
same,cell viability,[29],107%
same,cell viability,[30],112%
same,cell viability,[31],110%
same,cell viability,[32],101%
same,cell viability,[33],104%
Cc1ccccc1N1C(=O)c2cc([S+](N)(=O)[O-])c(Cl)cc2NC1C (stereo not drawn),cell viability,[1],117%
same,cell viability,[2],108%
same,cell viability,[3],105%
same,cell viability,[4],107%
same,cell viability,[5],122%
same,cell viability,[6],117%
same,cell viability,[7],28.7%
same,cell viability,[8],102%
same,cell viability,[9],112%
same,cell viability,[10],107%
same,cell viability,[11],103%
same,cell viability,[12],142%
same,cell viability,[13],120%
same,cell viability,[14],117%
same,cell viability,[15],109%
same,cell viability,[16],118%
same,cell viability,[17],126%
same,cell viability,[18],22.5%
same,cell viability,[19],128%
same,cell viability,[20],119%
same,cell viability,[21],112%
same,cell viability,[22],84.4%
same,cell viability,[23],125%
same,cell viability,[24],103%
same,cell viability,[25],89.6%
same,cell viability,[26],103%
same,cell viability,[27],100%
same,cell viability,[28],97.5%
same,cell viability,[29],26.8%
same,cell viability,[30],126%
same,cell viability,[31],112%
same,cell viability,[32],108%
same,cell viability,[33],97.2%
